Data on one compound can be found in publication PMC4407307 (Journal of Biomedical Science, 2015).

The structures appear in SMILES notation.

In the assay the target is SHV-128 (Enterobacter cloacae, UniProt D5LIR5). Nature of the assay: biochemical.

As a reminder, the IC50 is the midpoint of a concentration-inhibition curve.

Chain of SHV-128 (D5LIR5 entry or part of it): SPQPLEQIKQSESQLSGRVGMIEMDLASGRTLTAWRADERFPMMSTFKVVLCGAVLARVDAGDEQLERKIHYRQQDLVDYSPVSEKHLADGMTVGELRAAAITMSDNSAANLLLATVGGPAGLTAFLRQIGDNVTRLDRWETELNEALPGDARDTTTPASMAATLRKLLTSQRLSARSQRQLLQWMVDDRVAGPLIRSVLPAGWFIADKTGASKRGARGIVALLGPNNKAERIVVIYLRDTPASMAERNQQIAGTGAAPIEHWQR

The compound `O=C(O)[C@H]1/C(=C/CO)O[C@@H]2CC(=O)N21` [clavulanic acid] came in with an IC50 of 4.2 µM.
